These results are taken from US20130324582A1, “METHODS AND COMPOSITIONS FOR REDUCING FUNGAL INFESTATION AND IMPROVING GRASS QUALITY” (BAYER CROPSCIENCE LP, priority 2012, published 2013).

The test system of this assay is Dollar Spot. The experiment in a line: Dollar Spot infestation on Bentgrass Green (field application by knapsack sprayer). To be noted: applied at 0, 6, 14 days. It counts as in vivo, Sclerotinia homoeocarpa. The source says:
Example 1 sets forth the Dollar Spot infestation on Bentgrass Green.
A suspension concentrate composition of Compound I-1 as defined herein with and without the addition of Synergen® KN was applied to Bentgrass Green at 0, 6, and 14 days using a knapsack sprayer. Synergen® KN contains a blend of phosphate and ethoxylated alcohol compounds, such as a blend of poly(oxy-1,2-ethanediyl), α-isotridecyl-ω-hydroxy-, phosphate and ethoxylated C12-C16 alcohols.
In Table 1, untreated Bentgrass Green (1) was compared to a composition including Compound I-1 at 440 grams/hectacre (“GA/HA”) (2), a composition including Compound I-1 at 440 GA/HA+Synergen® KN at 1% by volume (3), a composition including Compound I-1 at 880 GA/HA (4), a composition including Compound I-1 at 880 GA/HA+Synergen® KN at 1% by volume (5), a composition including Compound I-1 at 1320 GA/HA (6), and composition including a Compound I-1 at 1320 GA/HA+Synergen® KN at 1% by volume (7). As set forth in Table 1, ratings were evaluated at −1, 6, 13, 22, 28, 35, and 48 days.

As for `Cn1c(=O)c2sc3c(=O)n(C)c(=O)c3sc2c1=O` [Compound I-1, 2,6-dimethyl-1H,5H-[1,4]dithiino[2,3-c:5,6-c′]dipyrrole-1,3,5,7(2H,6H)-tetrone], the “Percentage of Dollar Spot” value is, setting by setting: (440 GA/HA, rating Day 6, adjuvant where present 1% by volume) 7.5%; (440 GA/HA, rating Day 13, adjuvant where present 1% by volume) 10.8%; (440 GA/HA, rating Day 22, adjuvant where present 1% by volume) 12.8%; (440 GA/HA, rating Day 28, adjuvant where present 1% by volume) 14.5%; (440 GA/HA, rating Day 35, adjuvant where present 1% by volume) 19.5%; (440 GA/HA, rating Day 48, adjuvant where present 1% by volume) 22.8%. For the same compound, the “Percentage of Dollar Spot” value amounted to 8.3% (440 GA/HA, rating Day −1, adjuvant where present 1% by volume); 7.8% (880 GA/HA, rating Day 6, adjuvant where present 1% by volume); 10.5% (880 GA/HA, rating Day 13, adjuvant where present 1% by volume); 11.3% (880 GA/HA, rating Day 22, adjuvant where present 1% by volume); 12.5% (880 GA/HA, rating Day 28, adjuvant where present 1% by volume); 17% (880 GA/HA, rating Day 35, adjuvant where present 1% by volume). For the same compound, the “Percentage of Dollar Spot” value came to 20.8% (880 GA/HA, rating Day 48, adjuvant where present 1% by volume); 8.3% (880 GA/HA, rating Day −1, adjuvant where present 1% by volume); 8.3% (1320 GA/HA, rating Day 6, adjuvant where present 1% by volume); 10.5% (1320 GA/HA, rating Day 13, adjuvant where present 1% by volume); 12.8% (1320 GA/HA, rating Day 22, adjuvant where present 1% by volume); 14.8% (1320 GA/HA, rating Day 28, adjuvant where present 1% by volume). In addition, the “Percentage of Dollar Spot” value (1320 GA/HA, rating Day 35, adjuvant where present 1% by volume) is recorded as 17%; the “Percentage of Dollar Spot” value (1320 GA/HA, rating Day 48, adjuvant where present 1% by volume) was found to be 20%; the “Percentage of Dollar Spot” value (1320 GA/HA, rating Day −1, adjuvant where present 1% by volume) was determined as 9%.
